Counter-ions that a name gives are not always drawn.
What was measured:
[1] = test system: human pluripotent stem cell-derived cardiomyocytes (iCell Cardiomyocytes2); assay: Ca2+-fluorescence assay in hSC-derived cardiomyocytes (CTCM human), hazard scoring; assay type: cell-based; set-up: key to Hazard scoring, Color @ 0.1 μM / Hazard scoring, Color @ 0.2 μM / Hazard scoring, Color @ 0.5 μM / Hazard scoring, Color @ 1 μM / Hazard scoring, Color @ 2.5 μM / Hazard scoring, Color @ 5 μM / Hazard scoring, Color @ 0.3 μM / Hazard scoring, Color @ 3 μM / Hazard scoring, Color @ 10 μM: Green: No concern; Yellow: Low concern; Red: High concern; Black: Very high concern due to arrhythmic events
Experimental: 7) Cardio-Electrophysiological Effects of the Testing Compounds in Synchronously Beating Human Pluripotent Stem Cell-Derived Cardiomyocytes (hSC-CMs) Using a Ca^2+-Fluorescence Assay (CTCM human)
Compounds were tested in the 96-well plates.
Compounds were tested at 0.1 μM, 0.2 μM, 0.5 μM, 1 μM, 2.5 μM and 5 μM (n=4 per dose) on Cor.4U®-Cardiomyocytes or on iCell® Cardiomyocytes2.
Alternatively, compounds were tested at 0.1 μM, 0.3 μM; 1 μM, 3 μM, 10 μM and 30 μM (n=4 per dose) mostly on iCell® Cardiomyocytes2.
Vehicle control: Dimethylsulfoxide (DMSO). The solutions of the compound in DMSO or its solvent (final concentration of 0.1% DMSO; n=8).
Tested compounds were dissolved in DMSO at 1000-fold the intended concentrations. A compound “mother-plate” was made, containing the test compounds and positive and negative controls at 1000-fold the final concentrations. At the experiment day, these stock solutions were diluted with Tyrode (Sigma), supplemented with 10 mM HEPES (Gibco), to 2-fold the intended concentration (in round bottom compound plates). Final DMSO concentration in test solutions and vehicle control was 0.1%.
hSC-CMs (Cor.4U® Cardiomyocytes) were obtained from CDI (Ncardia, Germany). Cells are pre-plated and seeded in fibronectin-coated 96-well plates at a density suited to form a monolayer and maintained in culture in a stage incubator (37° C., 5% CO2), according to the instructions of the cell provider.
Second line hSC derived cardiomyocyte called iCell® Cardiomyocytes2 were purchased from FUJIFILM Cellular Dynamics (USA). The experiments with test drugs are carried out 5 to 7 days after plating the cells onto the plate to have a living, beating monolayer of hiPSC-derived cardiomyocytes. The beating monolayer in 96-well-plates are normally taken from 2 Vials of frozen iCell® Cardiomyocytes2 (≈5 million cells/vial), which will be plated onto three 96-well plates (≈50K/well).
At least one hour before the start of the experiments the normal cell medium was replaced with Tyrode solution with Calcium dye (see below).
Cal 520 dye (AAT Bioquest) was dissolved in 11 ml of Tyrode supplemented with 10 mM HEPES and warmed up to 37 C before adding to the cells.
35 μl cell culture medium was removed from each well and replaced with 35 μl of pre-warmed Cal 520 dye solution and cell plate was incubated for 45 min at 37° C./5% CO2. Cells were incubated for 5 min at 37° C.
Spontaneous electrical activity is recorded, using Cal520™ (AAT Bioquest) calcium fluorescence-dye signaling. This dye integrates the total intracellular calcium activity over the whole well. A bottle of Cal520 dye (50 μg, MW: 1103/mol) is dissolved with 50 μl DMSO as a stock solution of 0.9 mM. 50 μL of the stock solution of the dye was added to 10 ml Tryodes solution to have dye concentration of 4.5 μM. Subsequently, 35 μl of this dye solution was added into each well, to have a final dye concentration of 1.58 μM. The current dye protocol on this CTCM human assay was established recently (Ivan Kopljar et al, Journal of Pharmacological and toxicological methods 2018. 91: 80-86; Lu et al., Tox Sci 2019. 170 (2): 345-356).
Fluorescent signals (Ca^2+ transient morphology) were measured using the Functional Drug Screen System (FDSS/pCell; Hamamatsu, Japan) and the recordings were subsequently analyzed off-line, using appropriate software e.g. Notocord.
The cell plate was loaded into the FDSS/pCell for a test run: Ca^2+ transients were measured for 4 minutes to check for synchronous beating of the cardiomyocytes in each well. All 96 wells were measured simultaneously (sampling interval: 0.06 s, short exposure time: 10 ms; excitation wavelength 480 nm; emission wavelength 540 nm; FDSS/pCell warmed to 37° C.).
During the compound addition step, 100 μl of the respective double-concentrated test solutions was pipetted into each well simultaneously.
Data were analyzed off-line using appropriate software e.g. Notocord-Hem (version 4.3). […]

[2] = test system: OCI-AML3 tumors (disseminated, IV); assay: Efficacy study in disseminated OCI-AML3 model (survival); assay type: in vivo, mouse; conditions: vehicle control 38.5 days
Experimental: Doses were adjusted by individual body weight each day.
Female SCID beige mice (CB17.Cg-PrkdcscidLystbg-J/Crl/−) were used when they were approximately 6 to 8 weeks of age and weighed approximately 25 g. All animals could acclimate and recover from any shipping-related stress for a minimum of 7 days prior to experimental use. Autoclaved water and irradiated food were provided ad libitum, and the animals were maintained on a 12 hour light and dark cycle. Cages, bedding, and water bottles were autoclaved before use and changed weekly. The tissue culture and cell injection reagents are summarized below in Table 14.
Human AML cell line OCI-AML3 was cultured at 37° C., 5% CO2 in the indicated complete culture media (MEM Alpha+20% HI—FBS (Heat-Inactivated Fetal Bovine Serum)+2 mM L-glutamine+50 ug/ml Gentamycin). […]
Animals were monitored daily for clinical signs related to either compound toxicity or tumor burden (i.e., hind limb paralysis, lethargy, etc.).
Median survival was determined utilizing Kaplan-Meier survival analysis. […]
Statistical significance for body weights was evaluated as described above. Statistical significance was evaluated for Kaplan-Meier survival plots comparing therapeutic treatment group vs. appropriate vehicle-treated control using log-rank (Mantel-Cox) test in R software version 3.4.2. […]

KO-52 cells = assay: Proliferation assay (spheroid, day 8 confluence), KO-52 control cell line; assay type: cell-based; conditions: Homo sapiens; 8 days; read-out: spheroid assay_OneTime KO-52 IC50
Experimental: The anti-proliferative effect of menin/MLL protein/protein interaction inhibitor test compounds was assessed in human leukemia cell lines. The cell line MOLM-14 harbors a MLL translocation and expresses the MLL fusion protein MLL-AF9, respectively, as well as the wildtype protein from the second allele. OCI-AML3 cells that carry the NPM1c gene mutation were also tested. […] KO-52 was used as a control cell line containing two MLL (KMT2A) wildtype alleles in order to exclude compounds that display general cytotoxic effects.
KO-52 and OCI-AML3 cell lines were propagated in alpha-MEM (Sigma Aldrich) supplemented with 20% heat-inactivated fetal bovine serum (HyClone), 2 mM L-glutamine (Sigma Aldrich) and 50 μg/ml gentamycin (Gibco).
In order to assess the anti-proliferative effects, 200 MOLM-14 cells, 200 OCI-AML3 cells or 300 KO-52 cells were seeded in 200 μl media per well in 96-well round bottom, ultra-low attachment plates (Costar, catalogue number 7007). […] Spheroid like growth was measured in real-time by live-cell imaging (IncuCyteZOOM, Essenbio, 4× objective) acquiring images at day 8. Confluence (%) as a measure of spheroid size was determined using an integrated analysis tool.
In order to determine the effect of the test compounds over time, the confluence in each well as a measure of spheroid size, was calculated. […]

MOLM-14 cells = assay: Proliferation assay (spheroid, day 8 confluence), MOLM-14; assay type: cell-based; conditions: Homo sapiens, 8 days, read-out: spheroid assay_OneTime MOLM-14 IC50
[3] = Stability experiments under stress conditions (UHPLC purity, XRD); assay type: physicochemical; conditions: for XRD after stress: Reference Crystalline, form A
[4] = iCell Cardiomyocytes2, 30 min incubation
[5] = efficacious dose in mouse xenograft models of 30 mpk, (mouse, human)

SMILES: CCN(C(=O)c1cc(F)ccc1Oc1nncnc1N1CCC2(C1)CN([C@H](CCCN(C)CCOC)C(C)C)C2)C(C)C [Compound A1, (R)—N-ethyl-5-fluoro-N-isopropyl-2-((5-(2-(6-((2-methoxyethyl)(methyl)-amino)-2-methylhexan-3-yl)-2,6-diazaspiro[3.4]octan-6-yl)-1,2,4-triazin-6-yl)oxy)-benzanilide 0.2 HCl·x H2O (x=2-3)]
- Hazard scoring, Color @ 0.1 μM [1, 4]: Green
- Hazard scoring, Color @ 0.3 μM ([1]; 0.3 μM, iCell Cardiomyocytes2, 30 min incubation): Green
- Hazard scoring, Color @ 1 μM [1, 4]: Green
- Hazard scoring, Color @ 3 μM ([1]; 3 μM, iCell Cardiomyocytes2, 30 min incubation): Green
- Hazard scoring, Color @ 10 μM ([1]; 10 μM, iCell Cardiomyocytes2, 30 min incubation): Green
- Hazard scoring, Color @ 30 μM ([1]; 30 μM, iCell Cardiomyocytes2, 30 min incubation): yellow
- Margin CTCM human 10 μM vs free Cmax [1, 5]: > 16
- Margin CTCM human 30 μM vs free Cmax [1, 5]: > 45

SMILES: CCN(C(=O)c1cc(F)ccc1Oc1nncnc1N1CCC2(C1)CN([C@H](CCCN(C)CCOC)C(C)C)C2)C(C)C [Compound A3, (R)—N-ethyl-5-fluoro-N-isopropyl-2-((5-(2-(6-((2-methoxyethyl) (methyl)amino)-2-methylhexan-3-yl)-2,6-diazaspiro[3.4]octan-6-yl)-1,2,4-triazin-6-yl)oxy) benzamide oxalate]
- median days of survival ([2]; 30 mg/kg PO daily for 28 days): 75.5 days
- median days of survival ([2]; 50 mg/kg PO daily for 28 days): 58.5 days
- Hazard scoring, Color @ 0.1 μM [1, 4]: Green
- Hazard scoring, Color @ 0.2 μM ([1]; 0.2 μM, iCell Cardiomyocytes2, 30 min incubation): Green
- Hazard scoring, Color @ 0.5 μM ([1]; 0.5 μM, iCell Cardiomyocytes2, 30 min incubation): Green
- Hazard scoring, Color @ 1 μM [1, 4]: Green
- Hazard scoring, Color @ 2.5 μM ([1]; 2.5 μM, iCell Cardiomyocytes2, 30 min incubation): Green
- Hazard scoring, Color @ 5 μM ([1]; 5 μM, iCell Cardiomyocytes2, 30 min incubation): Green

SMILES: CCN(C(=O)c1cc(F)ccc1Oc1nncnc1N1CCC2(C1)CN([C@H](CCCN(C)CCOC)C(C)C)C2)C(C)C [Compound A4, (R)—N-ethyl-5-fluoro-N-isopropyl-2-((5-(2-(6-((2-methoxyethyl)(methyl)amino)-2-methylhexan-3-yl)-2,6-diazaspiro[3.4]octan-6-yl)-1,2,4-triazin-6-yl)oxy)benzamide bis-besylate salt hydrate]
- IC50 (KO-52 cells): 5440 nM
- IC50 (MOLM-14 cells): 8 nM
- Besylate salt Purity after stress ([3]; 50° C./10% RH, 7 days, Reference 99.65): 99.64
- Besylate salt Purity after stress ([3]; 50° C./10% RH, 14 days, Reference 99.65): 99.62
- Besylate salt Purity after stress ([3]; 50° C./30% RH, 21 days, Reference 99.21): 99.32
- XRD after stress ([3]; 50° C./30% RH, 21 days): Complies to ref
- Besylate salt Purity after stress ([3]; 50° C./50% RH, 7 days, Reference 99.65): 99.65
- Besylate salt Purity after stress ([3]; 50° C./50% RH, 14 days, Reference 99.65): 99.66
- Besylate salt Purity after stress ([3]; 50° C./75% RH, 21 days, Reference 99.21): 99.36
- XRD after stress ([3]; 50° C./75% RH, 21 days): Complies to ref
- chemical and physical stability (UHPLC, XRD) ([3]; under evaluated stress conditions): chemically and physically stable

From patent publication US20260125387A1, “(R)-N-ETHYL-5-FLUORO-N-ISOPROPYL-2-((5-(2-(6-((2-METHOXYETHYL)(METHYL)AMINO)-2-METHYLHEXAN-3-YL)-2,6-DIAZASPIRO[3.4]OCTAN-6-YL)-1,2,4-TRIAZIN-6-YL)OXY)BENZAMIDE BESYLATE SALT” (Janssen Pharmaceutica NV, priority 2021, published 2026)
